Entries after “also recorded” stand apart in the source; their conditions may differ.
Assays:
HMGCR pathway = test: Quantitative RT-PCR of aplexone-treated embryos; type: in vivo, zebrafish; details: qPCR, GAPDH-normalized
Method: Embryos at the 5-somite stage were treated with 0.4% DMSO (control) or 10 μM of aplexone in 0.4% DMSO and total RNA was isolated using the RNAeasy micro kit (Qiagen) at 30 hpf. Microarray analysis was performed in triplicate using the Affymetrix Zebrafish GeneChip, representing 15,617 genes. Synthesis and labeling of antisense RNA was performed as recommended by the array manufacturer using kits from Invitrogen for double-stranded cDNA synthesis, Enzo Life Sciences for transcription and labeling of antisense RNA and Affymetrix for probe purification and hybridization controls. Microarray hybridization data were analyzed using scripts written in the statistical programming language R (Team, 2009). Differentially expressed genes (DEGs) were identified using a linear model and multiple testing correction from the limma package (Smyth, 2004). The expression values were obtained using the robust multi array algorithm (Irizarry et al., 2003).
Quantitative RT-PCR was performed as follows. First strand cDNA was synthesized using the SuperScript™ first-strand synthesis system for RT-PCR (Invitrogen) and relative expression levels of genes were determined using iQ SYBR Green Supermix and an iCycler (Bio-Rad Laboratories). GAPDH was used for normalization.

[1] = system: Tg(kdrl:GFP) zebrafish embryos; test: Primary ISV formation (arterial-derived angiogenesis) in zebrafish embryos; type: in vivo
Description: (§1) Images of GFP expression in Tg(kdrl:GFP) embryos were acquired using a Zeiss SV-11 epifluorescence microscope. Confocal images were acquired using a Carl Zeiss Laser Scanning Systems LSM510 equipped with 20× air, 20× water or 40× water immersion objectives. For single time point confocal images, embryos were anesthetized with 0.01% tricaine and embedded in 1% agarose. When capturing time-lapse confocal movies, embryos were mounted in 3.5% methylcellulose (Sigma-Aldrich) and imaged for 5 hrs on a heated stage at 28.5° C. The images obtained were analyzed using the Zeiss LSM Image Brower version 4 and Image J.
A synthetic chemical library containing 168 compounds (Castellano et al., 2007) and 300 chemicals from Biomol International LP, consisting of 72 ion channel inhibitors (Cat No. 2805), 84 kinase/phosphatase inhibitors (Cat No. 2831), 84 orphan ligands (Cat No. 2825), and 60 endocannabinoids (Cat No. 2801) were screened. […]
To understand whether angiogenesis from arterial and venous ECs are under different genetic controls we screened a collection of small molecules for compounds that preferentially suppress angiogenesis from exclusively one cell type. In this screen, we used the primary ISV sprouts as the readout for arterial-derived angiogenesis, and the CVP and secondary ISV sprouts as indicators of venous-derived angiogenesis. […]

zebrafish embryos = test: Overall phenotype of treated zebrafish embryos (body shape, circulation); type: in vivo
Method: A,B,C, Overall phenotype of control and aplexone-treated embryos at 30 hpf. A′,B′,C′, Vasculature in trunk. […] D-E, Germ cells in control and aplexone treated embryos at 24 hpf were detected by in situ hybridization using the nanos probe. F, The percentage of embryos with ectopic primordial germ cells in control (n=26), 5 μM (n=13), and 10 μM (n=14) aplexone-treated embryos. […] I, The percentage of embryos with cardia bifida in control (n=16) and 10 μM-(n=17), 20 μM-(n=17) and 30 μM-(n=18) aplexone-treated embryos.
(§2) Aplexone treatment described in this study was carried out at a concentration of 10 μM starting at 10 hpf unless otherwise specified.

[2] = system: Tg(kdrl:GFP) zebrafish embryos; test: Caudal vein plexus (CVP) formation / venous angiogenesis in Tg(kdrl:GFP) zebrafish embryos; type: in vivo
Description: as §1
A synthetic chemical library containing 168 compounds (Castellano et al., 2007) and 300 chemicals from Biomol International LP, consisting of 72 ion channel inhibitors (Cat No. 2805), 84 kinase/phosphatase inhibitors (Cat No. 2831), 84 orphan ligands (Cat No. 2825), and 60 endocannabinoids (Cat No. 2801) were screened. The synthetic small molecules were prepared through nucleophilic phosphine catalysis of allenoates (Zhu et al., 2003). Four Tg(kdrl:GFP) embryos were placed into each well of 96-well plates containing a 10 μM solution of each chemical compound dissolved in embryo buffer with 0.1% DMSO. The embryos were raised at 28.5° C. and examined for defects in blood vessel development at 1 and 2 days after treatment. Standard parameters such as numbers of somites and head to body angle were used to determine the stages of zebrafish embryos (Kimmel et al., 1995).
as §2
8 ng tnnt2 MO (Gene Tools) (Sehnert et al., 2002), 3 nl of 4 mM GGTI-2133 (Calbiochem), 3 nl of 5 mM L744,832 (Calbiochem) and 1 nl of 2M mevalonate (Sigma-Aldrich) were injected into 1-2 cell stage embryos.
The library of 168 compounds^24 prepared through the nucleophilic phosphine catalysis of allenes were screened using Tg(kdrl:GFP) zebrafish. Four embryos were placed in each well of 96-well plates containing a 10 uM solution of each chemical compound dissolved in embryo buffer with 0.1% DMSO. The embryos were raised at 28.5° C. and defects in blood vessel development were examined at 1 and 2 days after fertilization.

HUVECs = test: Wound healing assay, HUVECs; type: cell-based, human
Method: HUVECs and HUAECs were purchased from VEC Technologies. Cells were cultured on 0.1% Gelatin-coated dishes in Medium 199 (Mediatech), supplemented with 15% Fetal Bovine Serum (ATCC), 48 μg/mL Endothelial Cell Growth Supplement (BD Biosciences), 64 μg/mL Heparin Sulfate (Sigma-Aldrich), 0.9 mM Sodium Pyruvate (Mediatech), 100 IU/ml Penicillin (Mediatech), and 100 μg/ml Streptomycin (Mediatech).
For the wound healing assay, cells were cultured in 24-well plates to confluence before being subjected to a 2-hour pre-treatment with either DMSO, aplexone, Rockout (Calbiochem) or NSC 23766 (TOCRIS Bioscience). After the pre-treatment, the monolayer of endothelial cells was scratched and the closure of the wound was measured after 8 hr. The images of wounds were taken at 0 and 8 hr after scratching and the area of the wound was measured using Image J. The migration distance (the width of the wound) was calculated by dividing the area by the length of the wound. Cells below passage seven were used in this study.

body shape (zebrafish embryos; 10 μM aplexone): relatively normal body shape
embryo length (zebrafish embryos; 30 μM aplexone): shorter than control embryos
blood circulation (zebrafish embryos; aplexone-treated embryos): lack blood circulation
SMILES: CC(=O)C1=CCC(c2ccccc2)N(S(=O)(=O)c2ccc(C)cc2)C1 (centres unmarked) [aplexone]
fold change 3-hydroxy-3-methylglutaryl-Coenzyme A reductase (HMGCR) (HMGCR pathway): 6.7 fold
fold change 3-hydroxy-3-methylglutaryl-Coenzyme A synthase 1 (HMGCS) (HMGCR pathway): 2.8 fold
fold change 7-dehydrocholesterol reductase (DHCR7) (HMGCR pathway): 2.5 fold
fold change cytochrome P450, family 51 (CYP51) (HMGCR pathway): 4.4 fold
fold change farnesyl diphosphate synthetase (FDPS) (HMGCR pathway): 2.2 fold
fold change insulin induced gene 1 (INSIG) (HMGCR pathway): 5.1 fold
fold change sterol-C4-methyl oxidase-like (SC4MOL) (HMGCR pathway): 5.6 fold
development of primary ISVs ([1]; 10 μM aplexone): indistinguishable; also recorded: does not affect the development of primary ISVs
development of primary ISVs ([1]; 30 μM aplexone): shorter and never reach the dorsal side of the somites; also recorded: inhibits the growth of primary ISVs
CVP formation at suboptimal level ([2]; 2 μM single agent): normal CVP
formation of the CVP ([2]; 10 μM aplexone from 10 hpf): severely defective
secondary ISVs (venous-derived sprouts) ([2]; 10 μM from 10 hpf, 2-day-old embryos): absent
migration of HUVECs (HUVECs; 5 μM aplexone): sufficient to impede the migration of HUVECs
migration of HUVECs (HUVECs; various aplexone concentrations, 8 hr after wound): inhibited

From US9084782B2, “Chemical inhibitors of cholesterol biosynthesis and venous angiogenesis” (The Regents of the University of California, priority 2011, dated 2015)
